Test results published in paper PMC4303209, “A novel phosphatidylinositol 3-kinase (PI3K) inhibitor directs a potent FOXO-dependent, p53-independent cell cycle arrest phenotype characterized by the differential induction of a subset of FOXO-regulated genes” (Breast Cancer Research : BCR, 2014).

Tested on: MCF-7 breast cancer cells
Experiment: Microarray gene expression analysis (Agilent whole human genome 4 x 44K; compound vs DMSO, LIMMA log2 fold change)
Assay type: cell-based

## Oc1cccc(-c2nc(N3CCOCC3)c3oc4ncccc4c3n2)c1 [PI-103]
Gene PDGFRB (5159), apoptosis genes
  PDGFRB log2FC: 0.024
Gene PEG3 (5178), apoptosis genes
  PEG3 log2FC: 0.129
Gene PEG10 (23089), apoptosis genes
  PEG10 log2FC: -0.104
Gene PF4 (5196), apoptosis genes
  PF4 log2FC: -0.033
Gene PHLDA3 (23612), apoptosis genes
  PHLDA3 log2FC: 0.113
Gene PIK3CG (5294), apoptosis genes
  PIK3CG log2FC: -0.004
Gene PKP1 (5317), apoptosis genes
  PKP1 log2FC: 0.031
Gene PLEKHG5 (57449), apoptosis genes
  PLEKHG5 log2FC: 0.199
Gene PLSCR3 (57048), apoptosis genes
  PLSCR3 log2FC: 0.125
Gene POLB (5423), apoptosis genes
  POLB log2FC: -0.249
Gene POLD4 (Gene 57804), cell cycle genes
  log2FC: 0.0256
Gene POR (5447), apoptosis genes
  POR log2FC: 0.107
Gene POU3F4 (5456), apoptosis genes
  POU3F4 log2FC: -0.017
Gene POU4F1, apoptosis genes
  POU4F1 log2FC: 0.019
Gene PPAT (Gene 10606), cell cycle genes
  log2FC: 0.08
Gene PPP1CA (Gene 5499), cell cycle genes
  log2FC: -0.18
Gene PPP2CA (Gene 5515), cell cycle genes
  log2FC: -0.52
Gene PPP2R1A (5518), apoptosis genes
  PPP2R1A log2FC: 0.062
Gene PRAMEF8 (391002), apoptosis genes
  PRAMEF8 log2FC: 0.060
Gene PRAMEF10 (343071), apoptosis genes
  PRAMEF10 log2FC: 0.251
Gene PRKACB (Gene 5567), cell cycle genes
  log2FC: 0.52
Gene PRKAG3 (Gene 53632), cell cycle genes
  log2FC PRKAG3: -0.0237
Gene PRKRA (8575), apoptosis genes
  PRKRA log2FC: -0.093
Gene PRLR (5618), apoptosis genes
  PRLR log2FC: 0.00543
Gene PROC (5624), apoptosis genes
  PROC log2FC: 0.030
Gene PROP1 (5626), apoptosis genes
  PROP1 log2FC: 0.324
Gene PSMA1 (5682), apoptosis genes
  PSMA1 log2FC: -0.030
Gene PSMA2 (Gene 5683), cell cycle genes
  log2FC: 0.17
Gene PSMA3 (Gene 5684), cell cycle genes
  log2FC: 0.14
Gene PSMA5 (5686), apoptosis genes
  PSMA5 log2FC: -0.147
Gene PSMA5 (Gene 5686), cell cycle genes
  log2FC PSMA5: -0.15
Gene PSMA7 (5688), apoptosis genes
  PSMA7 log2FC: -2.082
Gene PSMA7 (Gene 5688), cell cycle genes
  log2FC PSMA7: -2.08
Gene PSMB3 (5691), apoptosis genes
  PSMB3 log2FC: 0.053
Gene PSMB4 (Gene 5692), cell cycle genes
  log2FC: 0.17
Gene PSMB7 (5695), apoptosis genes
  PSMB7 log2FC: -0.149
Gene PSMB7 (Gene 5695), cell cycle genes
  log2FC PSMB7: -0.15
Gene PSMB8 (5696), apoptosis genes
  PSMB8 log2FC: -0.00568
Gene PSMC4 (5704), apoptosis genes
  PSMC4 log2FC: -0.023
Gene PSMC4 (Gene 5704), cell cycle genes
  log2FC PSMC4: -0.0233
Gene PSMD2 (5708), apoptosis genes
  PSMD2 log2FC: 0.00374
Gene PSMD13 (5719), apoptosis genes
  PSMD13 log2FC: -0.172
Gene PSMD14 (Gene 10213), cell cycle genes
  log2FC: 0.15
Gene PSME1 (Gene 5720), cell cycle genes
  log2FC: 0.31
Gene PSME2 (5721), apoptosis genes
  PSME2 log2FC: 0.039
Gene PTTG1 (Gene 9232), cell cycle genes
  log2FC: -0.21
Gene PYCARD (29108), apoptosis genes
  PYCARD log2FC: -0.121
Gene RAB11FIP3 (Gene 9727), cell cycle genes
  log2FC: -0.14
Gene RAD51C (Gene 5889), cell cycle genes
  log2FC RAD51C: -0.24
Gene RAE1 (Gene 8480), cell cycle genes
  log2FC RAE1: -0.15
Gene RAF1 (5894), apoptosis genes
  RAF1 log2FC: -0.081
Gene RALA (Gene 5898), cell cycle genes
  log2FC: 0.34
Gene RALB (Gene 5899), cell cycle genes
  log2FC: 0.08
Gene RAMP2 (10266), apoptosis genes
  RAMP2 log2FC: 0.059
Gene RANGAP1 (Gene 5905), cell cycle genes
  log2FC RANGAP1: -0.09
Gene RAPSN (5913), apoptosis genes
  RAPSN log2FC: -0.146
Gene RARB (5915), apoptosis genes
  RARB log2FC: 0.00425
Gene RASSF6 (166824), apoptosis genes
  RASSF6 log2FC: 0.020
Gene RBBP8 (Gene 5932), cell cycle genes
  log2FC: 0.34
Gene RBL1 (Gene 5933), cell cycle genes
  log2FC: 0.17
Gene RBM7 (Gene 10179), cell cycle genes
  log2FC: 0.23
Gene RCC1 (Gene 1104), cell cycle genes
  log2FC: -0.14
Gene REEP4 (Gene 80346), cell cycle genes
  log2FC REEP4: 0.28
Gene RET (5979), apoptosis genes
  RET log2FC: -0.025
Gene RHOT2 (89941), apoptosis genes
  RHOT2 log2FC: 0.051
Gene RPA2 (Gene 6118), cell cycle genes
  log2FC RPA2: -0.25
Gene RPS3 (6188), apoptosis genes
  RPS3 log2FC: -0.043
Gene RPS6KA2 (6196), apoptosis genes
  RPS6KA2 log2FC: 0.189
Gene RPS6KB1 (Gene 6198), cell cycle genes
  log2FC: 0.25
Gene RRN3 (653390), apoptosis genes
  RRN3 log2FC: 0.004
Gene RSPO1 (Gene 284654), cell cycle genes
  log2FC: -0.11
Gene RYR2 (6262), apoptosis genes
  RYR2 log2FC: -0.075
Gene S100A9 (6280), apoptosis genes
  S100A9 log2FC: 0.057
Gene S100A14 (57402), apoptosis genes
  S100A14 log2FC: 0.033
Gene SART1 (Gene 9092), cell cycle genes
  log2FC: -0.00235
Gene SCIN (85477), apoptosis genes
  SCIN log2FC: -0.013
Gene SEH1L (Gene 81929), cell cycle genes
  log2FC: -0.57
Gene SEMA5A (9037), apoptosis genes
  SEMA5A log2FC: -0.022
Gene SENP2 (Gene 59343), cell cycle genes
  log2FC SENP2: -0.06
Gene SERINC3 (10955), apoptosis genes
  SERINC3 log2FC: 0.115
Gene SERPINE1 (5054), apoptosis genes
  SERPINE1 log2FC: -0.018
Gene SESN1 (Gene 27244), cell cycle genes
  log2FC: -0.06
Gene SHF (90525), apoptosis genes
  SHF log2FC: 0.016
Gene SKIL (6498), apoptosis genes
  SKIL log2FC: 0.039
Gene SKIL (Gene 6498), cell cycle genes
  log2FC SKIL: 0.04
Gene SLBP (Gene 7884), cell cycle genes
  log2FC: 0.11
Gene SLC25A6 (293), apoptosis genes
  SLC25A6 log2FC: -0.018
Gene SLC26A8 (Gene 116369), cell cycle genes
  log2FC SLC26A8: -0.065
Gene SLC40A1 (30061), apoptosis genes
  SLC40A1 log2FC: -0.00212
Gene SMAD1 (4086), apoptosis genes
  SMAD1 log2FC: -0.215
Gene SMNDC1 (10285), apoptosis genes
  SMNDC1 log2FC: -0.319
Gene SOD1 (6647), apoptosis genes
  SOD1 log2FC: 0.105
Gene SOS1 (6654), apoptosis genes
  SOS1 log2FC: 0.010
Gene SOX8 (30812), apoptosis genes
  SOX8 log2FC: -0.456
Gene SPO11 (Gene 23626), cell cycle genes
  log2FC SPO11: 0.0237
Gene SPTAN1 (6709), apoptosis genes
  SPTAN1 log2FC: 0.362
Gene SRC (Gene 6714), cell cycle genes
  log2FC: -0.35
Gene STAG1 (Gene 10274), cell cycle genes
  log2FC: 0.32
Gene STK3 (6788), apoptosis genes
  STK3 log2FC: 0.109
Gene SULF1 (23213), apoptosis genes
  SULF1 log2FC: -0.171
Gene SUPT5H (Gene 6829), cell cycle genes
  log2FC: 0.00774
Gene SUV39H2 (Gene 79723), cell cycle genes
  log2FC: -0.56
Gene SYCP2 (10388), apoptosis genes
  SYCP2 log2FC: 0.019
Gene SYCP2 (Gene 10388), cell cycle genes
  log2FC SYCP2: 0.02
Gene SYCP3 (Gene 50511), cell cycle genes
  log2FC SYCP3: -0.03
Gene TAF2 (Gene 6873), cell cycle genes
  log2FC: 0.21
Gene TAF6 (Gene 6878), cell cycle genes
  log2FC TAF6: 0.22
Gene TAOK2 (Gene 9344), cell cycle genes
  log2FC: -0.25
Gene TEK (7010), apoptosis genes
  TEK log2FC: -0.024
Gene TEX14 (Gene 56155), cell cycle genes
  log2FC: 0.17
Gene TEX15 (Gene 56154), cell cycle genes
  log2FC: 0.23
Gene TFAP2D (83741), apoptosis genes
  TFAP2D log2FC: 0.021
Gene TGFA (Gene 7039), cell cycle genes
  log2FC: -0.53
Gene TGFB2 (7042), apoptosis genes
  TGFB2 log2FC: -0.026
Gene TGFB2 (Gene 7042), cell cycle genes
  log2FC TGFB2: -0.0258
Gene THEM4 (117145), apoptosis genes
  THEM4 log2FC: -0.280
Gene THOC5 (Gene 8563), cell cycle genes
  log2FC THOC5: 0.0165
Gene TMBIM4 (51643), apoptosis genes
  TMBIM4 log2FC: -0.154
Gene TMEM67 (Gene 91147), cell cycle genes
  log2FC: 0.17
Gene TMEM102 (284114), apoptosis genes
  TMEM102 log2FC: 0.338
Gene TNFRSF1B (7133), apoptosis genes
  TNFRSF1B log2FC: -0.040
Gene TNFRSF8 (943), apoptosis genes
  TNFRSF8 log2FC: 0.099
Gene TNFRSF10C (8794), apoptosis genes
  TNFRSF10C log2FC: 0.011
Gene TNFSF8 (944), apoptosis genes
  TNFSF8 log2FC: -0.011
Gene TNFSF9 (8744), apoptosis genes
  TNFSF9 log2FC: 0.192
Gene TNFSF10 (8743), apoptosis genes
  TNFSF10 log2FC: 0.00148
Gene TNFSF12 (8742), apoptosis genes
  TNFSF12 log2FC: 0.353
Gene TNFSF14 (8740), apoptosis genes
  TNFSF14 log2FC: 0.027
Gene TNFSF15 (9966), apoptosis genes
  TNFSF15 log2FC: 0.054
Gene TNFSF18 (8995), apoptosis genes
  TNFSF18 log2FC: 0.071
Gene TP73 (Gene 7161), cell cycle genes
  log2FC: -0.25
Gene TPD52L1 (Gene 7164), cell cycle genes
  log2FC: 0.15
Gene TPX2 (22974), apoptosis genes
  TPX2 log2FC: -0.00173
Gene TRAF2 (7186), apoptosis genes
  TRAF2 log2FC: -0.347
Gene TRAF3IP2 (10758), apoptosis genes
  TRAF3IP2 log2FC: -0.037
Gene TRIP13 (Gene 9319), cell cycle genes
  log2FC TRIP13: -0.38
Gene TUBGCP6 (Gene 85378), cell cycle genes
  log2FC: -0.19
Gene TXNDC5 (81567), apoptosis genes
  TXNDC5 log2FC: -0.039
Gene TYMS (Gene 7298), cell cycle genes
  log2FC TYMS: -0.08
Gene UBD (10537), apoptosis genes
  UBD log2FC: -0.037
Gene UBE2V2 (7336), apoptosis genes
  UBE2V2 log2FC: -0.365
Gene UNC13B (10497), apoptosis genes
  UNC13B log2FC: 0.046
Gene VDAC2 (7417), apoptosis genes
  VDAC2 log2FC: -0.094
Gene VIM (7431), apoptosis genes
  VIM log2FC: 0.122
Gene VIP (7432), apoptosis genes
  VIP log2FC: -0.302
Gene VNN1 (8876), apoptosis genes
  VNN1 log2FC: -0.010
Gene VRK1 (Gene 7443), cell cycle genes
  log2FC: 0.16
Gene WNK3 (65267), apoptosis genes
  WNK3 log2FC: -0.015
Gene WTAP (Gene 9589), cell cycle genes
  log2FC: -0.47
Gene YY1AP1 (Gene 55249), cell cycle genes
  log2FC: 0.31
Gene ZBTB16 (7704), apoptosis genes
  ZBTB16 log2FC: -0.00549
Gene ZC3H12D (Gene 85313), cell cycle genes
  log2FC ZC3H12D: -0.0743
Gene ZC3HC1 (Gene 51530), cell cycle genes
  log2FC: 0.16
Gene ZNF205 (7755), apoptosis genes
  ZNF205 log2FC: -0.247
Gene ZNF443 (10224), apoptosis genes
  ZNF443 log2FC: -0.204
Gene ZNF503 (Gene 84858), cell cycle genes
  log2FC: -0.12
Gene ZNF622 (90441), apoptosis genes
  ZNF622 log2FC: -0.120
